According to patent US7371536B2, “Methods for transporting vitamin C” (priority 1999, dated 2008):

What was measured:
Format in all cases: cell-based
human SVCT1 [1] = molecular target: T1, human SVCT1 (Homo sapiens, UniProt Q9UHI7); assay: L-[14C]ascorbic acid radiotracer uptake in Xenopus oocytes expressing human SVCT1
T1 construct: expressed in transfected cells; host or cells: Xenopus laevis oocytes injected with cRNA (vector pTLN2)
Protocol: Functional characterization in Xenopus oocytes—SVCT1 and SVCT2 cDNAs were subcloned into the pTLN2 vector (to improve functional expression in oocytes) and used for cRNA synthesis in vitro using the MEGAscript kit and T7 RNA polymerase (from Ambion). Oocytes were isolated from Xenopus laevis, treated with collagenase A and maintained at 18° C. in modified Barths' medium. Oocytes were injected with 15 ng SVCT1 or SVCT2 cRNA or water only. The radiotracer uptake and voltage-clamp experiments described below were conducted 2-5 days post-injection in standard medium of composition 100 mM NaCl, 2 mM KCl, 1 mM CaCl2, 1 mM MgCl2, and 10 mM HEPES (buffered to pH 7.5 with Tris base). For low-Na^+ or Na^+-free media, NaCl was replaced with choline chloride. For pH-dependence experiments, Na^+ media were buffered to between pH 5.5 and pH 8.0 using 0-5 mM MES, 0-5 mM HEPES and 0-5 mM Tris base. L-Ascorbic acid-containing solutions were always freshly prepared and used immediately. […] Oocytes were solubilized with 10% SDS and carbon-14 content measured by liquid scintillation counting. A two-microelectrode voltage-clamp was used to measure currents associated with SVCT1 expressed in oocytes. Oocytes were superfused at 22° C. in standard Na^+ medium and clamped at −50 mV. Current was continuously monitored by sampling at 1 Hz. Test solutions were always washed out with substrate-free, Na^+-free medium at pH 7.5 for several minutes. Once again, saturation kinetics data were fit to a modified Hill equation in which I and Imax were replaced by uptake V and maximal velocity Vmax for analysis of radiotracer uptake data.

human SVCT1 [2] = molecular target: T1, human SVCT1; assay: Two-microelectrode voltage-clamp of Xenopus oocytes expressing human SVCT1; details: 500 μM, −50 mV
Protocol: Functional characterization in Xenopus oocytes—SVCT1 and SVCT2 cDNAs were subcloned into the pTLN2 vector (to improve functional expression in oocytes) and used for cRNA synthesis in vitro using the MEGAscript kit and T7 RNA polymerase (from Ambion). Oocytes were isolated from Xenopus laevis, treated with collagenase A and maintained at 18° C. in modified Barths' medium. Oocytes were injected with 15 ng SVCT1 or SVCT2 cRNA or water only. The radiotracer uptake and voltage-clamp experiments described below were conducted 2-5 days post-injection in standard medium of composition 100 mM NaCl, 2 mM KCl, 1 mM CaCl2, 1 mM MgCl2, and 10 mM HEPES (buffered to pH 7.5 with Tris base). For low-Na^+ or Na^+-free media, NaCl was replaced with choline chloride. For pH-dependence experiments, Na^+ media were buffered to between pH 5.5 and pH 8.0 using 0-5 mM MES, 0-5 mM HEPES and 0-5 mM Tris base. L-Ascorbic acid-containing solutions were always freshly prepared and used immediately. Radiotracer uptake was determined by incubating 8-12 oocytes for 30 min (within the time-course of linear uptake) in standard Na^+, low-Na^+ or Na^+-free media with 10-500 μM L-[1-^14C]ascorbic acid (final specific activity ≈0.3 GBq/mmol). Oocytes were solubilized with 10% SDS and carbon-14 content measured by liquid scintillation counting. A two-microelectrode voltage-clamp was used to measure currents associated with SVCT1 expressed in oocytes. Oocytes were superfused at 22° C. in standard Na^+ medium and clamped at −50 mV. Current was continuously monitored by sampling at 1 Hz. Test solutions were always washed out with substrate-free, Na^+-free medium at pH 7.5 for several minutes. Once again, saturation kinetics data were fit to a modified Hill equation in which I and Imax were replaced by uptake V and maximal velocity Vmax for analysis of radiotracer uptake data.

rat SVCT1 = molecular target: T2, rat SVCT1 (Rattus norvegicus, UniProt Q9WTW7); assay: Two-microelectrode voltage-clamp of Xenopus oocytes expressing rat SVCT1
T2 construct: expressed in transfected cells; host or cells: Xenopus laevis oocytes injected with cRNA
Protocol: Rat SVCT1 and SVCT2 clones were obtained by isolating SVCT1 cDNA from rat kidney by expression cloning as described in Hediger et al., Methods Enzymol. 296:17-52 (1998). The SVCT2 cDNA was subsequently isolated by PCR-based homology screening of a rat brain cDNA library. […] Radiotracer and voltage-clamp experiments were performed (at 22° C.) in Xenopus oocytes two to seven days after injection with ˜25 ng of SVCT1 or SVCT2 cRNA synthesized in vitro. Radiotracer uptake was determined by incubating 6-10 oocytes for 30 or 60 min in standard 100 mM Na^+ or Na^+-free media with 10-600 μM L-[^14C]ascorbic acid.
Functional characterization of SVCT1 and SVCT2 in Xenopus oocytes—Oocytes were isolated from Xenopus laevis (under 2-aminoethylbenzoate anaesthesia), treated with collagenase A and stored at 18° C. in modified Barths' medium. Oocytes were injected with ≈25 ng of SVCT1 or SVCT2 cRNA synthesized in vitro, or water only (control), and incubated 2-7 days before radiotracer or voltage-clamp experiments were performed. Standard Na^+ uptake medium comprised 100 mM NaCl, 2 mM KCl, 1 mM CaCl2, 1 mM MgCl2, 10 mM HEPES (pH 7.5 with Tris base). For Na^+-free or low-Na^+ media, NaCl was replaced by equimolar choline chloride; likewise, Cl^− was replaced by gluconate for Cl^−-free medium. For pH-sensitivity experiments, Na^+ media were buffered at pH 5.5-8.0 using 0-5 mM MES, 0-5 mM HEPES and 0-5 mM Tris base. L-Ascorbic acid-containing solutions were freshly-prepared (without dithiothreitol) and used immediately.
Radiotracer uptake was determined by incubating 6-10 oocytes for 30 or 60 min in standard Na^+ or Na^+-free media (at 22° C.) with 10-600 μM L-[1-^14C]ascorbic acid (final specific activity 0.3 GBq/mmol). Oocytes were solubilized with 10% SDS and [^14C]-content was measured by liquid scintillation counting. A two-microelectrode voltage-clamp was used to measure currents in control oocytes and oocytes injected with rat SVCT1 or rat SVCT2 cRNA. Microelectrodes (resistance 0.5-5 MΩ) were filled with 3 M KCl. Oocytes were superfused at 22° C. in standard Na^+ medium and clamped at a holding potential (Vh) of −50 mV. For continuous current monitoring at Vh=−50 mV, the current was low-pass filtered at 20 Hz (sampling at 1 Hz). Additionally, step-changes in membrane potential (Vm) were applied (from +50 mV to −150 mV in 20-mV increments), each for a duration of 100 ms, before and after the addition of substrate; current was low-pass filtered at 500 Hz and digitized at 5 kHz. Test solutions were always washed out with substrate-free medium (100 mM choline chloride) at pH 7.5 for several minutes. Steady-state data (obtained by averaging the points over the final 16.7 ms at each Vm step when step-changes were applied) were fitted to equation (1) below, for which I is the evoked current (i.e., the difference in steady-state current measured in the presence and absence of substrate), Imax the derived current maximum, S the concentration of substrate S (Na^+ or L-ascorbic acid),
[formula] the substrate concentration at which current was half-maximal, and nH the Hill coefficient for S. (For radiotracer experiments, I was replaced with velocity V and Imax replaced with the derived maximal velocity, Vmax.)

T1 sequence (Q9UHI7 whole entry): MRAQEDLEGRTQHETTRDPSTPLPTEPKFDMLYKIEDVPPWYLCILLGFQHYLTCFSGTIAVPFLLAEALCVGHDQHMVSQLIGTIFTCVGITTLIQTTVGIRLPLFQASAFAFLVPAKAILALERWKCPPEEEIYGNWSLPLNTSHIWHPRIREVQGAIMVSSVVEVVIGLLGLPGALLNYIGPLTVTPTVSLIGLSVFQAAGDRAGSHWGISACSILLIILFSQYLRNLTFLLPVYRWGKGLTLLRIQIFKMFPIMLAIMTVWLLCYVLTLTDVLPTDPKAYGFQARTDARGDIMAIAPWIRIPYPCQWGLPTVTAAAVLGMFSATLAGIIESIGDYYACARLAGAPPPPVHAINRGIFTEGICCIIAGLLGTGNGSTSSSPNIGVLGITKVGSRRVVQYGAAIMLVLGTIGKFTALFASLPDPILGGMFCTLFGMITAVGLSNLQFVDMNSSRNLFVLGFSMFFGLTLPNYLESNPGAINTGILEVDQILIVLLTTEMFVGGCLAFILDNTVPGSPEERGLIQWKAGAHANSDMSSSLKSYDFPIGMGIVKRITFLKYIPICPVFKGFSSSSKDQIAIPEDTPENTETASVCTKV
T2 sequence (Q9WTW7 whole entry): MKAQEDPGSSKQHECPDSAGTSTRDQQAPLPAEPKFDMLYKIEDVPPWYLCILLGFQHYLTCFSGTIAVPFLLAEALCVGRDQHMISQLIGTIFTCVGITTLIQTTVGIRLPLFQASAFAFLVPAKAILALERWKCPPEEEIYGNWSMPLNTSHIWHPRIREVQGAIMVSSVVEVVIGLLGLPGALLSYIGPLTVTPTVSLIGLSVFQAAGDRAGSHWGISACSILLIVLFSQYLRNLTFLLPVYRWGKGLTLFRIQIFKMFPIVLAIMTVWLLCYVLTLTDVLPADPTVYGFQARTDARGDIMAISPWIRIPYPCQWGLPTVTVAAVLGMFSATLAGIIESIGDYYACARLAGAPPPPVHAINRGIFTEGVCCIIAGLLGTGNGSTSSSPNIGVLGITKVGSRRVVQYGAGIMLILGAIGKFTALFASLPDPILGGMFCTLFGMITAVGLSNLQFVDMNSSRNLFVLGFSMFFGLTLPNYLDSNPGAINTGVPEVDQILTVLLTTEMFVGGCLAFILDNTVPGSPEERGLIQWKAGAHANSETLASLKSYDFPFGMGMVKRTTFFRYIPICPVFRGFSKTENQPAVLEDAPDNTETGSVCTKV

SMILES | inhibition of L-[14C]ascorbic acid uptake (in words) (human SVCT1 [1]; data not shown) | further results
O=CC[C@@H](O)[C@H](O)[C@H](O)CO [2-deoxy-D-glucose] | not significantly inhibited | 
Nc1ncnc2c1ncn2C1CC(O)C(CO)O1 (stereo not drawn) [2-deoxyadenosine] | none resulted in any significant inhibition | 
Nc1ncnc2c1ncn2[C@@H]1O[C@H](COP(=O)(O)OP(=O)(O)O)[C@@H](O)[C@H]1O [ADP] | none resulted in any significant inhibition | 
Nc1ncnc2c1ncn2[C@@H]1O[C@H](COP(=O)(O)O)[C@@H](O)[C@H]1O [AMP] | none resulted in any significant inhibition | 
Nc1ncnc2c1ncn2[C@@H]1O[C@H](COP(=O)(O)OP(=O)(O)OP(=O)(O)O)[C@@H](O)[C@H]1O [ATP] | none resulted in any significant inhibition | 
O=C(CO)[C@@H](O)[C@H](O)[C@H](O)CO [D-fructose] | not significantly inhibited | 
OC[C@@H](O)[C@@H](O)[C@H](O)[C@H](O)CO [D-mannitol] | not significantly inhibited | 
O=C[C@H](O)[C@H](O)[C@H](O)CO [D-ribose] | not significantly inhibited | 
Nc1nc2c(ncn2[C@@H]2O[C@H](COP(=O)(O)OP(=O)(O)OP(=O)(O)O)[C@@H](O)[C@H]2O)c(=O)[nH]1 [GTP] | none resulted in any significant inhibition | 
O=C1O[C@H]([C@@H](O)CO)C(O)=C1OP(=O)(O)O [L-ascorbic acid-2-phosphate] |  | transport / substrate selectivity (in words) (human SVCT1 [2]): barely transported
CCCCCCCCCCCCCCCC(=O)OC[C@H](O)[C@H]1OC(=O)C(O)=C1O [L-ascorbic acid-6-palmitate] |  | inhibition of L-[14C]ascorbic acid uptake (human SVCT1 [1]; data not shown): 20-30%
O=C[C@@H](O)[C@@H](O)[C@@H](O)CO [L-ribose] | not significantly inhibited | 
[Li+] [Li^+] |  | ability to substitute for Na^+ in driving SVCT1-mediated transport (human SVCT1 [1]): unable to substitute for Na^+
[Na+] [Na^+] |  | K0.5 for Na^+ (concentration at which current was half-maximal) (rat SVCT1; at 200 μM L-ascorbic acid, −50 mV): 40 mM; Hill coefficient (nH) (rat SVCT1; evoked currents, −50 mV): ≈ 2; K0.5 for Na^+ (human SVCT1 [1]; L-ascorbic acid uptake): 15 to 25 mM
O=c1ccn([C@@H]2O[C@H](COP(=O)(O)OP(=O)(O)OP(=O)(O)O)[C@@H](O)[C@H]2O)c(=O)[nH]1 [UTP] | none resulted in any significant inhibition | 
Nc1ncnc2nc[nH]c12 [adenine] | none resulted in any significant inhibition | 
Nc1ncnc2c1ncn2[C@@H]1O[C@H](CO)[C@@H](O)[C@H]1O [adenosine] | none resulted in any significant inhibition | 
Nc1ncnc2c1ncn2[C@H]1C[C@H](O)[C@@H](COP(=O)(O)OP(=O)(O)OP(=O)(O)O)O1 [dATP] | none resulted in any significant inhibition | 
Nc1ccn([C@H]2C[C@H](O)[C@@H](COP(=O)(O)OP(=O)(O)OP(=O)(O)O)O2)c(=O)n1 [dCTP] | none resulted in any significant inhibition | 
Nc1nc2c(ncn2[C@H]2C[C@H](O)[C@@H](COP(=O)(O)OP(=O)(O)OP(=O)(O)O)O2)c(=O)[nH]1 [dGTP] | none resulted in any significant inhibition | 
Cc1cn([C@H]2C[C@H](O)[C@@H](COP(=O)(O)OP(=O)(O)OP(=O)(O)O)O2)c(=O)[nH]c1=O [dTTP] | none resulted in any significant inhibition | 
Nc1nc2c(ncn2[C@@H]2O[C@H](CO)[C@@H](O)[C@H]2O)c(=O)[nH]1 [guanosine] | none resulted in any significant inhibition | 
OC[C@H]1O[C@@H](n2cnc3c(O)ncnc32)[C@H](O)[C@@H]1O [inosine] | none resulted in any significant inhibition | 
CC(O)C(=O)O (stereo not drawn) [lactic acid] | not significantly inhibited | 
O=C(O)C(=O)O [oxalic acid] | not significantly inhibited | 
O=C(O)CCC(=O)O [succinic acid] | not significantly inhibited | 
Cc1c[nH]c(=O)[nH]c1=O [thymine] | none resulted in any significant inhibition | 
O=c1cc[nH]c(=O)[nH]1 [uracil] | none resulted in any significant inhibition | evoked current / substrate selectivity (in words) (rat SVCT1; oocytes expressing SVCT1): excluded
O=c1[nH]c(=O)c2[nH]c(=O)[nH]c2[nH]1 [uric acid] | not significantly inhibited | 
O=c1ccn([C@@H]2O[C@H](CO)[C@@H](O)[C@H]2O)c(=O)[nH]1 [uridine] | none resulted in any significant inhibition | 
